From publication PMC8637440, “Structural Modifications Yield Novel Insights Into the Intriguing Pharmacodynamic Potential of Anti-inflammatory Nitro-Fatty Acids” (Frontiers in Pharmacology, 2021)
Like-named read-outs stand apart in the source and are kept apart here.

Experiments:
12-LO = molecular target: T1, 12-LO (Homo sapiens, UniProt P18054); experiment: 12-HETE formation in intact PMNL, A23187 in absence of AA; format: cell-based; details: read-out: PMNL (w/o AA) 12-HETE IC50
T1 construct: endogenous in cells; host or cells: platelet impurities in human PMNL preparations
T1 sequence (P18054 1-663): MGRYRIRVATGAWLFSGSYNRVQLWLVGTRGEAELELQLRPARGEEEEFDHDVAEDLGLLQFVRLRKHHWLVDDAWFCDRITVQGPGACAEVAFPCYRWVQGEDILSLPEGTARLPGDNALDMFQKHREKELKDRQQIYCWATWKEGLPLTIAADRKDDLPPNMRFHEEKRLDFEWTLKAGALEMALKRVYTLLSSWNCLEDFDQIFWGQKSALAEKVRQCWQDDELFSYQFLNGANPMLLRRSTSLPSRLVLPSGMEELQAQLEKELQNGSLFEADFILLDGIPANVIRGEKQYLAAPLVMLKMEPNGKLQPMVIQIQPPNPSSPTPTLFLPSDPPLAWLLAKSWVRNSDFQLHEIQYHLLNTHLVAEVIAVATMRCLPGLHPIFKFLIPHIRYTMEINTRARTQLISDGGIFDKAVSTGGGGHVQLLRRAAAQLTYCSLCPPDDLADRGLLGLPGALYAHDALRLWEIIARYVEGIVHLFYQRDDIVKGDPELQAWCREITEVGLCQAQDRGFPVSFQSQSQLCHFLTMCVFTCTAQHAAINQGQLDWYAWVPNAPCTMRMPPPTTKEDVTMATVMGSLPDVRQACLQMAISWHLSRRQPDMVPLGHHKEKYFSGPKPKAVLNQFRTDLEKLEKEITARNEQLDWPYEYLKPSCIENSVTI

5-LO = molecular target: T2, 5-LO (Homo sapiens, UniProt P09917); experiment: 5-LO product formation (LTB4, 5-HETE) in intact PMNL, A23187 in absence of AA; format: cell-based
T2 construct: endogenous in cells; host or cells: human PMNL from buffy coats
T2 sequence (P09917 1-674): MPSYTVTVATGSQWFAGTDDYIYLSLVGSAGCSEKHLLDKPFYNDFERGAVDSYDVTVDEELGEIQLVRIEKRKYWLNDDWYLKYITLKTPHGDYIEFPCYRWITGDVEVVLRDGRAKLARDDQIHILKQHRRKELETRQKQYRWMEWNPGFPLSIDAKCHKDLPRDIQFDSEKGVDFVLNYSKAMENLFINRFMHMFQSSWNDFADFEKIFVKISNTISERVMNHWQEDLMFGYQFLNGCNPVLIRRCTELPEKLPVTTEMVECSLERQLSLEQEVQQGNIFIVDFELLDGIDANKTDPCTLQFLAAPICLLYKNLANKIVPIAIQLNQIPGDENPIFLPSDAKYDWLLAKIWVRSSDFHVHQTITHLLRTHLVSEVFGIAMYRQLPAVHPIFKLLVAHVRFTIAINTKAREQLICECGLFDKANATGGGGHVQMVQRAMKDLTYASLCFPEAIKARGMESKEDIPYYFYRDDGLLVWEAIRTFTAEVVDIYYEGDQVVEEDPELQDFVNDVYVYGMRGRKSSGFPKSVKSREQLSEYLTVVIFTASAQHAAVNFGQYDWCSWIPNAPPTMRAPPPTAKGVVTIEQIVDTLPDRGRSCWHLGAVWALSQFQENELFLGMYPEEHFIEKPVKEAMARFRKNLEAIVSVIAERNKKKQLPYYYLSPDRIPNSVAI
Experimental: Buffy coats from different donors of different blood types were commercially obtained from DRK Blutspendedienst Baden-Württemberg Institute Frankfurt. Donors have given their written consent. To avoid initial blood clotting only buffy coats from one donor or several donors with the same blood type were combined and diluted with 1× PBS mixed with 5% dextran solution and allowed to stand for 30 min at RT to separate the erythrocytes. Following separation, the supernatant was transferred very gently to new 50-ml tubes containing lymphocyte separation medium (LSM) and centrifuged for 10 min at 800 ×g at RT with the centrifuge brake turned off. Afterwards, the supernatant was decanted carefully to discard the platelets and monocytes. The PMNL were washed with 1× PBS before the residual erythrocytes were lysed in two cycles: the cell pellet was resuspended with 10 ml H2O and vortexed for 45 s, and lysis was stopped with 40 ml 1 × PBS. After 10-min centrifugation at 200 ×g at RT, the cycle was repeated once. The supernatant was aspirated, the cell pellet resuspended in 5 ml PBS/glucose and initially separated PMNL preparations with different blood types were finally pooled to gain a sufficient number of cells.
5-LO activity in intact cells was assayed by measuring LTB4 (leukotriene B4) and 5-HETE (5-hydroxyeicosatetraenoic acid) levels in the PMNL supernatants. […] Recombinant 5-LO enzyme activity was assessed by the determination of 5-HETE levels representing a direct product assay. In the cell-based LO activity assays, 5 × 10^6 cells per ml PBS/glucose were transferred to 5 ml glass tubes containing 1 mM CaCl2 and stored on ice. […] […] Recombinant 5-LO activity assays were carried out using 3 µg r5LO-wt enzyme. The enzyme was diluted in PBS/EDTA/ATP, transferred into 5-ml glass tubes, and stored on ice. […] The samples were then pre-heated at 37°C in a water bath and subsequently stimulated with 1 mM CaCl2 and 20 µM AA for 10 min at 37°C. The reaction was stopped by placing the glass tubes on ice. The supernatants were transferred to 1.5 ml reaction tubes and stored at −80°C before LC-MS (liquid chromatography and mass spectrometry) analysis of LTB4 and HETEs as described in 2.6 at the Institute of Pharmacology, Goethe University, University Hospital, Germany.
For experiments shown in Table 4 samples after treatment were supplemented with 500 µl PBS, 30 µl HCl (1 N), and 200 ng internal standard prostaglandin B1. Those samples containing intact cells were centrifuged for 10 min (870 g, room temperature). […] The eluate was diluted with 125 µl H2O and analyzed by reverse-phase HPLC as previously described ([Steinhilber et al., 1989]). […] Unless otherwise stated, 5-LO metabolites 6-trans-LTB4, 12-epi-6-trans-LTB4, LTB4, and 5-H(p)ETE were quantified.

[1] = read-out: PMNL (w/o AA) 5-HETE IC50
[2] = read-out: PMNL (w/o AA) LTB4 IC50

| SMILES | IC50 (12-LO) [nM] | IC50 (5-LO; [1]) [nM] | IC50 (5-LO; [2]) [nM] |
| --- | --- | --- | --- |
| CCCCCCCCC=C(CCCCCCCC(=O)O)[N+](=O)[O-] [18.9.9, 9-nitro-octadec-9-enoic acid] | 6260 ± 823 | 2340 ± 1500 | 2580 ± 1400 |
| CCCCCCCCCCC=C(CCCCCCCC(=O)O)[N+](=O)[O-] [20.9.9, 9-nitro-eicos-9-enoic acid] | 15500 ± 740 | 2060 ± 1340 | 2050 ± 1250 |
